What all share (format): physicochemical
A short description of data set [1]: Effect of antioxidants on benzene levels in 10% w/v benzoyl peroxide formulations. The conditions noted are these: 10% w/v benzoyl peroxide plus antioxidant. How it is done:
For benzoyl peroxide stability studies in glycerol, benzoyl peroxide was prepared in a stock suspension of 20% w/v in glycerol and mixed 1:1 with 20% w/v suspensions or v/v solutions of antioxidants in glycerol. For pH experiments, the same stock suspension of benzoyl peroxide was mixed 1:1 with a 50% glycerol solution with 200 mM buffering agent (Citrate buffer pH 3.0, Tris Buffer pH 7.0, or Tris Buffer pH 9.0) for final 75% glycerol solution. The final volume of all reactions was 100 μL in GC headspace vials with 10% solution benzoyl peroxide (10 mg) and 10% antioxidant or 100 mM buffering agent. Vials were immediately crimp sealed for incubation. For analysis, 4.9 mL of DMSO was added to make up the final volume to approximate 5 mL, crimp sealed, and gently vortexed to mix.
Benzene standard was diluted in DMSO for an 11-point calibration ranging from 10 ng/vial to 100 μg/vial. The coefficient of determination R^2 were greater than 0.999. Five (5) mL of DMSO was used for negative control samples.
The method USP <467> Residual Solvents Procedure A was modified from flame ionization detection (FID) to mass spectrometry (MS) detection for benzene in benzoyl peroxide products. The gas chromatography (GC) methods were also modified to allow shorter run time and the method was validated for addition of up to 500 mg benzoyl peroxide product or 200 ml glycerol. Identification of benzene was based on the retention time matching to certified reference standards and mass spectral m/z matching to benzene. Lower limit of detection (LLOD) was 10 ng (equivalent to 0.02 ppm in hand benzoyl peroxide products) and LLOQ was 25 μg. The measurement uncertainty was determined to be 20%.
10% w/v benzoyl peroxide formulations were prepared. Various antioxidants were added to the formulations (10% w/v butylated hydroxytoluene (BHT), 10% w/v vitamin E acetate, or 5% w/v tert-butyl hydroquinone (TBHQ)+5% w/v BHT) to test whether these antioxidants could prevent or reduce formation of benzene under certain conditions. The various formulations were incubated at either 37° C., for up to two weeks or at 50° C., for up to two weeks. Benzene levels in each formulation were tested at various time points according to the protocols described in Example 1.

A short description of data set [2]: Effect of antioxidants added to FDA-approved benzoyl peroxide drug products on benzene levels. The conditions noted are these: antioxidant added to drug product, 50° C. for 2 days. How it is done:
(§1) The method USP <467> Residual Solvents Procedure A was modified from flame ionization detection (FID) to mass spectrometry (MS) detection for benzene in benzoyl peroxide products. The gas chromatography (GC) methods were also modified to allow shorter run time and the method was validated for addition of up to 500 mg benzoyl peroxide product or 200 ml glycerol. Identification of benzene was based on the retention time matching to certified reference standards and mass spectral m/z matching to benzene.

A short description of data set [3]: Effect of solvents on benzene levels in 10% w/v benzoyl peroxide formulations. The conditions noted are these: 10% benzoyl peroxide, 37° C. for 10 days, compared to formulations containing glycerol or NMP. As to the method:
as §1
10% w/v benzoyl peroxide formulations were prepared. Various solvents were added to the formulations (water, dimethylsulfoxide (DMSO), glycerol. N-methyl-2-pyrrolidone (NMP)) to test whether these solvents could prevent or reduce formation of benzene under certain conditions. The various formulations were incubated at either 37° C., for up to two weeks or at 50° C., for up to two weeks. Benzene levels in each formulation were tested at various time points according to the protocols described in Example 1.

Data set [4] in a line: Benzene levels formed by crystalline benzoyl peroxide incubated at 50° C. The conditions noted are these: 50° C. for up to 12 days. How it is done:
as §1

Experimental findings from US20240299336A1, “SHELF-STABLE FORMULATIONS OF BENZOYL PEROXIDE AND METHODS OF PRODUCING SAME” (BLUE HILL TECHNOLOGIES LLC, priority 2022, published 2024) are described below.

Regarding `Cc1cc(C(C)(C)C)c(O)c(C(C)(C)C)c1` [BHT, butylated hydroxytoluene], the “levels of benzene formed in the formulations” value (shortened to “levels … in the formulations”) in data set [1] (37° C. for up to two weeks) and in data set [1] (50° C. for up to two weeks) was “most dramatic reduction” each time. For the same compound, the “levels of benzene formed in two FDA-approved drug products with antioxidant” value in data set [2] is reported as “reduce the degradation of benzoyl peroxide to benzene”. With `C[S+](C)[O-]` [DMSO, dimethylsulfoxide], in data set [3], the “levels … in the formulations” value was “most dramatic reduction in, or complete prevention of, benzene levels”. `CC(C)(C)c1cc(O)ccc1O` [TBHQ, tert-butyl hydroquinone]: the “levels of benzene formed in two FDA-approved drug products with antioxidant” value in data set [2] is on record as “reduce the degradation of benzoyl peroxide to benzene”. Turning to `O=C(OOC(=O)c1ccccc1)c1ccccc1` [crystalline benzoyl peroxide, benzoyl peroxide], the “levels of benzene formed” value in data set [4] is recorded as “may be protected from forming benzene levels”.

With `CC(=O)Oc1c(C)c(C)c2c(c1C)CCC(C)(CCC[C@H](C)CCC[C@H](C)CCCC(C)C)O2` (stereo partly drawn) [vitamin E acetate], the “levels … in the formulations” value in data set [1] (37° C. for up to two weeks) and in data set [1] (50° C. for up to two weeks) was “reduced the levels of benzene” in each case. For `O` [water], the “levels … in the formulations” value in data set [3] is recorded as “most dramatic reduction in, or complete prevention of, benzene levels”.
